Assay results taken from patent US11904020B2, “Bicyclic peptide ligands specific for TREM2” (Bicycle Tx Limited, priority 2021, dated 2024).
Read-outs that look alike come from different tables or passages of the source. *1 amine or outer side, *2 acyl side, *3 side chain or, on linkers, in order; H or OH if unused. Where a SMILES comes first, the peptide text is derived from it. Bridges are numbered along the chain shown (N, C = ends). [ ]: non-standard residue; d: D form. TATA = O=C(CC[*:1])N1CN(C(=O)CC[*:2])CN(C(=O)CC[*:3])C1; Phe(4-Me) = Cc1ccc(C[C@H](N)C(=O)O)cc1; 1Nal = N[C@@H](Cc1cccc2ccccc12)C(=O)O; 2Nal = N[C@@H](Cc1ccc2ccccc2c1)C(=O)O; hPhe = N[C@@H](CCc1ccccc1)C(=O)O; NMeA = CN[C@@H](C)C(=O)O

Assays:
[1] = target: TREM2 extracellular domain (ECD); test: Bio-Layer Interferometry (BLI) direct binding assay, cyno
Protocol: Traces were analysed using Octet Software (Version 11.0).

TREM2 receptor = target: T1, TREM2 receptor (Homo sapiens, UniProt Q9NZC2); test: pSYK Homogenous Time Resolved Fluorescence (HTRF) assay in iPSC macrophages; format: cell-based
T1 construct: Both parental (TREM2 expressing) and isogenic TREM2 KO iPSC macrophages were plated; endogenous in cells; host or cells: human iPSC-derived macrophages (parental, TREM2 expressing)
T1 sequence (Q9NZC2 19-230): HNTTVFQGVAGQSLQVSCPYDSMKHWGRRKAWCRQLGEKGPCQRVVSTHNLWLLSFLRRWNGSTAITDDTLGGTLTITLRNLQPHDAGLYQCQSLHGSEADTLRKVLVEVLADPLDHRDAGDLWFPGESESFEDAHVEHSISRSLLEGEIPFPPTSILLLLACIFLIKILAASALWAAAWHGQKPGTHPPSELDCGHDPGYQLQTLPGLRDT
Protocol: Quantitative assessment of total and phospho (Tyr 525/526) SYK was performed on iPSC macrophages using CisBio total and phospho-SYK HTRF kits (catalogue numbers 64SYKTPGG and 64SYKY525-PEG respectively). Human iPSC macrophage precursors derived from embryoid bodies were plated in 96 well plates (Perkin Elmer Cell Carrier ultra, black walled plates, #6055800) at a density of 40 k cells per well in 100 μl macrophage media (XVIVO15 (Lonza, #BE04-418F), 1% Penicillin-Streptomycin (Gibco, #15140-122), 1% GlutaMAX™ Supplement (Gibco, #35050-038), 0.1% M-CSF (Invitrogen, #PHC9501)). Cells were grown for 7 days to induce full differentiation to iPSC macrophages. Both parental (TREM2 expressing) and isogenic TREM2 KO iPSC macrophages were plated to test for specificity of peptide binding. Following differentiation, cells were stimulated for 5 mins with either the control TREM2 activating antibody (R&D systems, #AF1828), a human IgG control (R&D systems, #AB-108-C), or a 10 point CRC of bicyclic peptide (serial 2 fold dilutions from a starting concentration of 100 μM). Following stimulation the media was removed, and cells were lysed in 50 μl lysis buffer (supplied with the kit) per well. Cells were incubated in LB3 for 30 mins with shaking at room temperature. Following lysis, 16 μl of sample was removed and added to a white 384 well plate (ProxiPlate-384 Plus (Perkin Elmer, #6008280)) and 4 μl of pre-mixed antibody solution was added to each well of the plate. The plate was incubated overnight at room temperature, and the following day, […] was measured at 665 nm and 620 nm using a Pherastar FSX. The same cell lysate was used to assess total and phosphorylated SYK, to enable the generation of a ratio of phosphorylated SYK in each sample.

[2] = target: TREM2 extracellular domain (ECD) (residues 19-131, C-terminally biotinylated, deglycosylated or glycosylated) (Homo sapiens, UniProt Q9NZC2); test: biochemical
Protocol: Bio-layer interferometry was performed on an Octet RED384® system (Sartorius) at 25° C. in a buffer containing 50 mM HEPES (pH 7.5), 150 mM NaCl and 0.1% Tween. TREM2 extracellular domain (ECD) (residues 19-131, C-terminally biotinylated, deglycosylated or glycosylated) was loaded onto Superstreptavidin biosensors (SSA, 18-5070, Sartorius) at 0.0125 mg/ml for 300 s. Bicycle peptides (10 mM in DMSO) were dispensed into 384-Well Tilted-Bottom Plates (18-5076, Sartorius) using an Echo liquid handler giving a final DMSO concentration of 0.125% in all wells including control wells. Association of defined concentrations of bicyclic peptide (0-12.5 μM, 1:2 dilutions for 7 points) was recorded over 120 s followed by dissociation in buffer over 120 s. Reference wells containing no bicycle peptides and reference sensors loaded with an unrelated protein (His-tagged MLLT3a) were subjected to the same assay protocol and double reference subtraction was used for processing to account for non-specific binding. Traces were analysed using Octet Software (Version 11.0). Association and dissociation curves were globally fit and the response at equilibrium (Req) plotted against concentration to obtain steady-state KD values.

[3] = Human BLI (Kd; nM) (deglycosylated), Table 4A, deglycosylated human TREM2 ECD, steady-state KD, 25° C.
[4] = human iPSC macrophages, 5 mins stimulation, phospho (Tyr 525/526) SYK, NB = no binding, read-out: pSYK

SMILES | Kd [2, 3] | EC50 (TREM2 receptor; [4]) | other results
CC(=O)N[C@H]1CSCCC(=O)N2CN3CN(C2)C(=O)CCSC[C@H](NC(=O)[C@H](Cc2ccc(O)cc2)NC(=O)[C@H](CCC(=O)O)NC(=O)[C@H](CO)NC1=O)C(=O)N[C@@H](Cc1ccccc1)C(=O)N[C@@H](Cc1c[nH]c2ccccc12)C(=O)N1CCC[C@H]1C(=O)N[C@@H](Cc1cccc2ccccc12)C(=O)N[C@@H](Cc1ccc(O)cc1)C(=O)N[C@@H](C)C(=O)N[C@H](C(N)=O)CSCCC3=O [BCY20722, Ac-(SEQ ID NO: 46)] (Ac-CSEYCFWP[1Nal]YAC-NH2; linker 1-5-12 via TATA) |  |  | Kd ([1]; Table 4B): 3600 nM
C[C@H](N)C(=O)N[C@H]1CSCCC(=O)N2CN3CN(C2)C(=O)CCSC[C@H](NC(=O)[C@H](Cc2ccc(O)cc2)NC(=O)[C@H](CCC(=O)O)NC(=O)[C@H](CO)NC1=O)C(=O)N[C@@H](Cc1ccccc1)C(=O)N[C@@H](Cc1c[nH]c2ccccc12)C(=O)N1CCC[C@H]1C(=O)N[C@@H](Cc1ccccc1)C(=O)N[C@@H](Cc1ccc(O)cc1)C(=O)N[C@@H](Cc1c[nH]cn1)C(=O)N[C@H](C(=O)N[C@@H](C)C(N)=O)CSCCC3=O [BCY16054, A-(SEQ ID NO: 1)-A] (H-ACSEYCFWPFYHCA-NH2; linker 2-6-13 via TATA; N-terminus and C-terminus assumed) | 700 nM |  | EC50 (TREM2 receptor): 10.7 µM; Kd ([2]; KD, binding to the human TREM2 extracellular domain in the BLI assay, FIGS. 1A to 1D): ~700 nM; Kd ([1]; Table 4A): 3300 nM
CC(=O)N[C@H]1CSCCC(=O)N2CN3CN(C2)C(=O)CCSC[C@H](NC(=O)[C@H](Cc2ccc(O)cc2)NC(=O)[C@H](CCC(=O)O)NC(=O)[C@H](CO)NC1=O)C(=O)N[C@@H](Cc1ccccc1)C(=O)N[C@@H](Cc1ccc2ccccc2c1)C(=O)N1CCC[C@H]1C(=O)N[C@@H](Cc1ccccc1)C(=O)N[C@@H](Cc1ccc(O)cc1)C(=O)N[C@@H](C)C(=O)N[C@H](C(N)=O)CSCCC3=O [BCY19296, Ac-(SEQ ID NO: 33)] (Ac-CSEYCF[2Nal]PFYAC-NH2; linker 1-5-12 via TATA; C-terminus assumed) | 2700 nM | < 3.4 µM | 
CC(=O)N[C@H]1CSCCC(=O)N2CN3CN(C2)C(=O)CCSC[C@H](NC(=O)[C@H](Cc2ccc(O)cc2)NC(=O)[C@H](CCC(=O)O)NC(=O)[C@H](CO)NC1=O)C(=O)N[C@@H](Cc1ccc(C)cc1)C(=O)N[C@@H](Cc1c[nH]c2ccccc12)C(=O)N1CCC[C@H]1C(=O)N[C@@H](Cc1ccccc1)C(=O)N[C@@H](Cc1ccc(O)cc1)C(=O)N[C@@H](C)C(=O)N[C@H](C(N)=O)CSCCC3=O [BCY19298, Ac-(SEQ ID NO: 30)] (Ac-CSEYC[Phe(4-Me)]WPFYAC-NH2; linker 1-5-12 via TATA; C-terminus assumed) |  | < 3.4 µM | 
CC(=O)N[C@H]1CSCCC(=O)N2CN3CN(C2)C(=O)CCSC[C@H](NC(=O)[C@H](Cc2ccc(O)cc2)NC(=O)[C@H](CCC(=O)O)NC(=O)[C@H](CO)NC1=O)C(=O)N[C@@H](Cc1ccccc1)C(=O)N[C@@H](Cc1c[nH]c2ccccc12)C(=O)N1CCC[C@H]1C(=O)N[C@@H](Cc1ccc(C)cc1)C(=O)N[C@@H](Cc1ccc(O)cc1)C(=O)N[C@@H](C)C(=O)N[C@H](C(N)=O)CSCCC3=O [BCY19299, Ac-(SEQ ID NO: 36)] (Ac-CSEYCFWP[Phe(4-Me)]YAC-NH2; linker 1-5-12 via TATA; C-terminus assumed) | 18000 nM | > 10 µM | 
CC(=O)N[C@H]1CSCCC(=O)N2CN3CN(C2)C(=O)CCSC[C@H](NC(=O)[C@H](Cc2ccc(O)cc2)NC(=O)[C@H](CCC(=O)O)NC(=O)[C@H](CO)NC1=O)C(=O)N[C@@H](Cc1ccccc1)C(=O)N[C@@H](Cc1cccc2ccccc12)C(=O)N1CCC[C@H]1C(=O)N[C@@H](Cc1ccccc1)C(=O)N[C@@H](Cc1ccc(O)cc1)C(=O)N[C@@H](C)C(=O)N[C@H](C(N)=O)CSCCC3=O [BCY19294, Ac-(SEQ ID NO: 32)] (Ac-CSEYCF[1Nal]PFYAC-NH2; linker 1-5-12 via TATA) | 1500 nM | < 3.4 µM | 
CC(C)C[C@@H]1NC(=O)[C@H](Cc2ccc(O)cc2)NC(=O)[C@H](Cc2ccccc2)NC(=O)[C@@H]2CCCN2C(=O)[C@H](Cc2c[nH]c3ccccc23)NC(=O)[C@H](Cc2ccccc2)NC(=O)[C@@H]2CSCCC(=O)N3CN(CN(C3)C(=O)CCSC[C@@H](C(=O)N[C@@H](C)C(N)=O)NC1=O)C(=O)CCSC[C@H](NC(=O)[C@H](C)N)C(=O)N[C@@H]([C@@H](C)O)C(=O)N[C@@H](CC(N)=O)C(=O)N[C@@H](Cc1ccc(O)cc1)C(=O)N2 [BCY19782, A-(SEQ ID NO: 21)-A] (H-ACTNYCFWPFYLCA-NH2; linker 2-6-13 via TATA) | 1400 nM | 3.8 µM | 
CC(=O)N[C@H]1CSCCC(=O)N2CN3CN(C2)C(=O)CCSC[C@H](NC(=O)[C@H](Cc2ccc(O)cc2)NC(=O)[C@H](CCC(=O)O)NC(=O)[C@H](CO)NC1=O)C(=O)N[C@@H](Cc1ccccc1)C(=O)N[C@@H](Cc1c[nH]c2ccccc12)C(=O)N1CCC[C@H]1C(=O)N[C@@H](CCc1ccccc1)C(=O)N[C@@H](Cc1ccc(O)cc1)C(=O)N[C@@H](C)C(=O)N[C@H](C(N)=O)CSCCC3=O [BCY19301, Ac-(SEQ ID NO: 35)] (Ac-CSEYCFWP[hPhe]YAC-NH2; linker 1-5-12 via TATA) |  | < 3.4 µM | 
C[C@H](N)C(=O)N[C@H]1CSCCC(=O)N2CN3CN(C2)C(=O)CCSC[C@H](NC(=O)[C@H](Cc2ccc(O)cc2)NC(=O)[C@H](CC(N)=O)NC(=O)[C@H]([C@@H](C)O)NC1=O)C(=O)N[C@@H](Cc1ccccc1)C(=O)N[C@@H](Cc1c[nH]c2ccccc12)C(=O)N1CCC[C@H]1C(=O)N[C@@H](Cc1ccccc1)C(=O)N[C@@H](CCC(N)=O)C(=O)N[C@@H](Cc1ccc(O)cc1)C(=O)N[C@H](C(=O)N[C@@H](C)C(N)=O)CSCCC3=O [BCY19779, A-(SEQ ID NO: 18)-A] (H-ACTNYCFWPFQYCA-NH2; linker 2-6-13 via TATA) | 920 nM | 2.5 µM | 
CC(=O)N[C@H]1CSCCC(=O)N2CN3CN(C2)C(=O)CCSC[C@H](NC(=O)[C@H](Cc2ccc(O)cc2)NC(=O)[C@H](CCC(=O)O)NC(=O)[C@H](CO)NC1=O)C(=O)N[C@@H](Cc1ccccc1)C(=O)N[C@@H](Cc1c[nH]c2ccccc12)C(=O)N(C)[C@@H](C)C(=O)N[C@@H](Cc1ccccc1)C(=O)N[C@@H](Cc1ccc(O)cc1)C(=O)N[C@@H](C)C(=O)N[C@H](C(N)=O)CSCCC3=O [BCY19303, Ac-(SEQ ID NO: 34)] (Ac-CSEYCFW[NMeA]FYAC-NH2; linker 1-5-12 via TATA) |  | < 3.4 µM | 
C[C@H](N)C(=O)N[C@H]1CSCCC(=O)N2CN3CN(C2)C(=O)CCSC[C@H](NC(=O)[C@H](Cc2ccc(O)cc2)NC(=O)[C@H](CCC(=O)O)NC(=O)[C@H](CO)NC1=O)C(=O)N[C@@H](Cc1ccccc1)C(=O)N[C@@H](Cc1c[nH]c2ccccc12)C(=O)N1CCC[C@H]1C(=O)N[C@@H](Cc1ccccc1)C(=O)N[C@@H](CCC(N)=O)C(=O)N[C@@H](Cc1ccc(O)cc1)C(=O)N[C@H](C(=O)N[C@@H](C)C(N)=O)CSCCC3=O [BCY19784, A-(SEQ ID NO: 23)-A] (H-ACSEYCFWPFQYCA-NH2; linker 2-6-13 via TATA) |  | 1.8 µM | 
